Results on 18 molecules are retold here after US10858335B2 (Rigel Pharmaceuticals, Inc., priority 2014, dated 2020).

The first assay relates to GDF8 signaling (p-SMAD-3 (Ser423/425)). In words: AlphaScreen SureFire SMAD3 (p-Ser423/425) assay, GDF8-stimulated cells (GDF pSMAD). Type of assay: cell-based. The following applies: Mus musculus, MPC-11, GDF8-stimulated pSMAD3, MPC11; tested as the salt form given; read-out: GDF pSMAD (MPC11) (μM), inhibition of GDF8 signaling. A general note: Bead proximity is the source of the signal in Alpha formats.
With `Cc1ccc(O)cc1-c1ncccc1-c1ccc2ncnc(N)c2c1` [compound 1005, 3-(3-(4-aminoquinazolin-6-yl)pyridin-2-yl)-4-methylphenol], the IC50 was 5.45 µM.
On the same count and under the same terms, for `Cc1ccc(C(F)F)cc1-c1ncccc1-c1ccc2ncnc(N)c2c1` [compound 1024, 6-(2-(5-(difluoromethyl)-2-methylphenyl)pyridin-3-yl)quinazolin-4-amine] the value was 0.577 µM.
In the case of `Nc1ncnc2ccc(-c3cccnc3-c3cc(OC(F)(F)F)ccc3F)cc12` [compound 1014, 6-(2-(2-fluoro-5-(trifluoromethoxy)phenyl)pyridin-3-yl)quinazolin-4-amine], the IC50 is 0.416 µM.
`Cc1cc2ncnc(N)c2cc1-c1cccnc1-c1cc(Cl)ccc1F` [compound 981, 6-(2-(5-chloro-2-fluorophenyl)pyridin-3-yl)-7-methylquinazolin-4-amine]: the IC50 was determined as 9.34 µM.

The same assay, now with this note: Mus musculus, MPC-11, MPC11; GDF8-stimulated; p-SMAD3 AlphaScreen; read-out: GDF pSMAD (MPC11) (inhibition of GDF8 signaling).
`Cc1cc(-c2ncccc2-c2cnc3[nH]ncc3c2)ccc1F` [Compound 78, 5-(2-(4-Fluoro-3-methylphenyl)pyridin-3-yl)-1H-pyrazolo[3,4-b]pyridine]: the IC50 stood at 0.316 µM.
Consider `CCCCNc1ncnc2ccc(-c3cccnc3-c3ccc(F)c(C)c3)cc12` [compound 403, N-Butyl-6-(2-(4-fluoro-3-methylphenyl)pyridin-3-yl)quinazolin-4-amine], for which the IC50 was found to be 1.67 µM.
On to `Cc1cccc(-c2ncccc2-c2ccc3nccnc3c2)c1` [compound 540, 6-(2-(m-Tolyl)pyridin-3-yl)quinoxaline], for which the IC50 was determined as 0.426 µM.
As for `Cc1cccc(-c2ncccc2-c2ccc3nc(N)ncc3c2)c1` [compound 384, 6-(2-(m-Tolyl)pyridin-3-yl)quinazolin-2-amine], the IC50 was 7.79 µM.
On the same count and under the same terms, for `CN(C)c1cnc2ccc(-c3cccnc3-c3cccc(C(F)(F)F)c3)cn12` [compound 554, N,N-Dimethyl-6-(2-(3-(trifluoromethyl)phenyl)pyridin-3-yl)imidazo[1,2-a]pyridin-3-amine] the value was 4.68 µM.
As for `Fc1ccc(-c2ncccc2-c2cnc3[nH]ncc3c2)cc1F` [Compound 77, 5-(2-(3,4-Difluorophenyl)pyridin-3-yl)-1H-pyrazolo[3,4-b]pyridine], the IC50 is 3.65 µM.
As for `Clc1cccc(-c2ncccc2-c2ccc3ncccc3c2)c1` [compound 699, 6-(2-(3-Chlorophenyl)pyridin-3-yl)quinolone], the IC50 is 2.3 µM.
For the molecule `Cc1ccc(F)c(-c2ncccc2-c2ccc3ncc(C(=O)NCCCN4CCCC4=O)n3c2)c1` [compound 725, 6-(2-(2-Fluoro-5-methylphenyl)pyridin-3-yl)-N-(3-(2-oxopyrrolidin-1-yl)propyl)imidazo[1,2-a]pyridine-3-carboxamide], the IC50 was 0.465 µM.
For `Cc1cccc(-c2ncccc2-c2ccc3[nH]cnc(=O)c3c2)c1` [compound 361, 6-(2-(m-tolyl)pyridin-3-yl)quinazolin-4(1H)-one], the IC50 is 0.23 µM.
In the case of `Cc1c(Cl)cccc1-c1ncccc1-c1ccc2ncnc(N)c2c1` [compound 464, 6-(2-(3-Chloro-2-methylphenyl)pyridin-3-yl)quinazolin-4-amine], the IC50 came to 3.96 µM.
Same read-out and setting: for `Cc1cc(-c2ncccc2-c2ccn3c(C(=O)NCCN4CCOCC4)ncc3c2)ccc1F` [compound 275, 7-(2-(4-Fluoro-3-methylphenyl)pyridin-3-yl)-N-(2-morpholinoethyl)imidazo[1,5-a]pyridine-3-carboxamide] the value was 2.95 µM; for `Fc1cc(F)c(-c2ncccc2-c2ccc3ncccc3c2)cc1F` [compound 696, 6-(2-(2,4,5-Trifluorophenyl)pyridin-3-yl)quinoline], 2.11 µM; for `Nc1noc2cc(-c3cccnc3-c3ccc(F)c(Cl)c3)ccc12` [compound 797, 6-(2-(3-Chloro-4-fluorophenyl)pyridin-3-yl)benzo[d]isoxazol-3-amine], 3.81 µM.
As for `[2H]C([2H])([2H])c1cccc(-c2ncccc2-c2ccc3ncsc3c2)c1` [compound 603, 6-(2-(3-(Methyl-d3)phenyl)pyridin-3-yl)benzo[d]thiazole], the IC50 turned out to be 0.109 µM.
